From patent US10328022B2, “Formulations and methods for vaginal delivery of antiprogestins” (REPROS THERAPEUTICS INC., priority 2012, dated 2019)

What was measured:
[1] = system: New Zealand White rabbits; test: Cumulative vaginal mucous membrane irritancy, 10 daily intravaginal doses; format: in vivo, rabbit
Method: Pullulan capsules (Capsugel NPcaps®, size 0) comprising CDB-4124 were administered once daily for 10 consecutive days intravaginally to 10 healthy virgin female New Zealand White rabbits in order to determine the cumulative vaginal mucous membrane irritancy potential and to obtain plasma samples for pharmacokinetic analysis. Five rabbits were assigned to each of two groups, the first dosed with vehicle control (pullulan capsules with 0.5 ml PEG 1000 fill) introduced into the upper vaginal vault of each rabbit using a syringe applicator (Group 1), the second with CDB-4124 (pullulan capsules with 12 mg CDB-4124 in 0.5 ml PEG 1000)(Group 2). The external vaginal mucosa of each animal was examined for erythema, edema and discharge prior to the initial dose, immediately prior to each treatment and prior to sacrifice. All animals were examined for gross pathology.

[2] = Pharmacokinetics of vaginal pullulan capsules with 12 mg CDB-4124 in women; format: in vivo, human
Method: (§1) Capsugel NPcaps® were filled with the excipient fill formulations described above with 12 mg CDB-4124 (telapristone acetate) and administered vaginally to human females with uterine fibroids once per day for a period of 2 weeks to determine the length of time required to reach steady state and overall systemic exposure of the parent compound (CDB-4124) and the primary metabolite (CDB-4453). The capsules were administered using a commercially available vaginal applicator modified by reversing the insert (see FIG. 5). The unmodified applicator comprises a barrel and plunger with the barrel having a relatively wide opening on one end and a relatively narrow opening on the other end. The applicator is designed such that the drug is placed in the end with the larger diameter opening (entrance end), the applicator is inserted into the vagina and the plunger is used to push the drug out the barrel and into the vagina. For insertion of the filled NPcaps, the shell end of the capsule (having a […] diameter) was placed into the narrow opening in the barrel, leaving the cap exposed. […] Pharmacokinetic data was then obtained from patients.

[3] = system: human females with uterine fibroids; test: Vaginal administration of pullulan capsules with 12 mg CDB-4124: menses and fibroid symptoms; format: in vivo
Method: as §1
(§2) In a previous oral study, doses of 1, 3, 6, 9 and 12 mg of CDB-4124 were administered for a period of 10 weeks. […] Cessation of menses directly correlates to efficacy of an oral dose in both uterine fibroids and endometriosis. […] Given the overall low exposure of the 12 mg dose, in those women that continued to menstruate, further improvements in reduction of symptoms are expected with longer exposure to the drug. In efficacy studies in which CDB-4124 was administered orally, women experienced a nearly 50% reduction in mean fibroid size at a 25 mg dose. When those women were then escalated to a 50 mg oral dose for an additional four months, fibroid size was reduced to approximately 25% of the initial volume. Based on the assessment of fibroid symptoms as scored by UFSQOL, women on oral CDB-4124 were, in general, symptom free.

[4] = system: human females with uterine fibroids; test: Previous oral study of CDB-4124, 1, 3, 6, 9 and 12 mg for 10 weeks; format: in vivo
Method: as §2

uterine fibroids = test: Oral efficacy studies of CDB-4124, 25 mg then 50 mg; format: in vivo, human
Method: as §2

[5] = 12 mg intravaginally once daily for 10 days
[6] = 12 mg vaginal, pair-wise comparison of 6 women

COCC(=O)[C@@]1(OC(C)=O)CC[C@H]2[C@@H]3CCC4=CC(=O)CCC4=C3[C@@H](c3ccc(N(C)C)cc3)C[C@@]21C [CDB-4124, 21-methoxy-17α-acetoxy-11β-(4 N,N-dimethylaminophenyl)-19-norpregna-4,9-diene-3,20-dione]
External vaginal mucosa: erythema, edema ([1]; 12 mg CDB-4124 in pullulan capsule intravaginally once daily for 10 days): ⅖ rabbits showed very slight erythema and/or edema on 4 occasions
Gross findings in ovaries, uterus, three sections of the vagina [1, 5]: No gross findings
Histopathological findings [1, 5]: nor were any histopathological findings observed
Irritation index [1, 5]: none
Drug peak after steady state ([2]; 12 mg vaginal once per day, women): no obvious drug peak
Systemic exposure relative to an equivalent oral dose, based on AUC ([2]; 12 mg vaginal versus 12 mg oral, women): about ⅙
Cmax compared with oral doses ([2]; 12 mg vaginal versus 1, 3, 6, 9, 12 mg oral, women): lower than any of the oral doses
Release profile from pullulan capsules ([2]; 12 mg vaginal, steady state, 24 hour period, women): continuous release of active agents at a substantially constant rate
Exposure compared with the 1 mg oral dose ([2]; 12 mg vaginal, women): only a fraction of the exposure of the ineffective 1 mg oral dose
Maximum exposure relative to the 50 mg oral dose ([2]; 12 mg vaginal, women): 1/100
Time to steady state concentration ([2]; women with uterine fibroids, 12 mg vaginal pullulan capsule once per day): one
Cessation of menses, number of women ([3]; 12 mg vaginal once per day, 6 women): 3 women
Fibroid related condition ([3]; 12 mg vaginal, after only 4 weeks of treatment): significant improvements
Reduction in menstrual bleeding, Pictorial Blood Loss Assessment Chart (PBAC) [3, 6]: Statistical significance (p<0.05)
Reduction in overall uterine fibroid symptoms, Uterine Fibroid Symptom Quality of Life Survey (UFSQOL) [3, 6]: Statistical significance (p<0.05)
Efficacy of the 1 mg oral dose ([4]; oral 1 mg): ineffective
Tolerability ([4]; oral 1, 3, 6, 9 and 12 mg for 10 weeks): all doses were well tolerated
Lowest dose inducing reliable cessation of menses ([4]; oral, 10 weeks): 3 mg
Fibroid size as share of the initial volume (uterine fibroids; escalated to 50 mg oral dose for an additional four months): approximately 25%
Reduction in mean fibroid size (uterine fibroids; oral 25 mg dose): ~50%
Fibroid symptoms as scored by UFSQOL (uterine fibroids; oral CDB-4124): symptom free
